According to patent US11813305B2, “Endoplasmic reticulum stress as a predictive tool in cancer therapy and a combination therapy for the treatment of cancer” (IMMUNE SYSTEM KEY LTD., priority 2016, dated 2023):

Columns and labels:
[1] = test system: human ovarian cancer cells (OV90); assay: BrdU incorporation assay; type: cell-based; settings: Taxol alone, 2 nM or 4 nM, FIG. 13A
Experimental: (§1) Cells were placed at 2,000 cells/well in the middle of a 96 well plate with 100 μl DMEM (life science 41965-039) and 10% fetal calf serum (FBS, Biological industries 14-127-1A) for 24 hours in an incubator at 37° C. with 5% CO2. The medium was then replaced to 200 μl DMEM with 2.5% FBS and Taxol (sigma T7402) at a final concentration of 2 nM or 4 nM in DMSO or dTCApFs (nextar ISK353-01 batch 351-01/1.68) at a final concentration of 25 μg/ml in DMSO. The medium in the control cells was replaced by DMEM and FBS as indicated above. The maximal concentration of DMSO in the cell wells was less than 0.5%. Four wells were used for each concentration.
(§2) Taxol- and dTCApFs-treated cells as well as the control cells were further incubated for 24 hours in the presence of BrdU as follows: 20 μl BrdU reagent (diluted 1:100 in DMEM supplemented with 2.5% FBS) was added to the cells and the plate was incubated 24 hours in 37° degrees incubator with 5% CO2. BrdU ELISA was performed according to the kit protocol (Millipore #2752).
(§3) Cells were placed at 2000 cells/well in the middle of a 96 well plate with 100 μl DMEM and 10% FBS for 24 hours in an incubator at 37° C. with 5% CO2. The medium was then replaced to 200 μl DMEM with 2.5% FBS and dTCApFs at a final concentration of 25 μg/ml (nextar ISK353-01 batch 351-01/1.68) in DMSO. The maximal concentration of DMSO in the cells wells was less than 0.5%. […]

[2] = test system: human pancreatic cancer cells (BxPC3); assay: BrdU incorporation assay; type: cell-based; settings: Taxol alone, 2 nM or 4 nM, FIG. 13B
Experimental: as §1, §2, §3

[3] = test system: human TNBC cells (human MDA231); assay: Triple negative breast cancer tumors in mice; type: in vivo, nude mice; settings: doxorubicin alone, once a week at 3 mg/kg, FIG. 14
Experimental: Therefore, 32 nude mice were inoculated subcutaneously (S.C.) with 9 million human TNBC cells (human MDA231, ATCC) per mouse. Cells were cultured as known in the art, for example, as described above. When the tumors exceeded a volume of 40 mm^3, the mice were randomly divided into five groups, as follows. The “Control” group (n=5) was treated with 5% mannitol; the “dTCApFs” group (n=5) was treated once a week with dTCApFs at 15 mg/kg; the “Dox” group (n=5) was treated once a week with doxorubicin (Sigma Aldrich) at 3 mg/kg; the “dTCApFs+Dox next day” (n=8) group was treated with dTCApFs at 15 mg/kg and 24 hours later also with doxorubicin, at 3 mg/kg; and the “dTCApFs+Dox same day” (n=9) group was treated with dTCApFs at 15 mg/kg and with doxorubicin at 3 mg/kg, on same day.

B16 cells = assay: Melanoma tumors in mice, dTCApFs and doxorubicin; type: in vivo, C57bl/6 mice; settings: doxorubicin alone, once a week at 3 mg/kg, FIG. 17
Experimental: In order to examine the effect of a combination of dTCApFs and doxorubicin on melanoma tumor volume, the following experiments were performed in mice. C57bl/6 mice (28) were inoculated SC with 0.2 million B16 cells (ATCC) per mouse. B16 melanoma is a murine tumor cell line used for research as a model for human skin cancers. When tumors exceeded a volume of 50 mm^3, the mice were randomly divided into 4 groups, as follows. “Control” group (n=6) was treated with 5% mannitol; “dTCApFs” treated group (n=6) was treated once a week with dTCApFs (at 15 mg/kg); “Dox” treated group (n=6) was treated once a week with doxorubicin (at 3 mg/kg); and dTCApFs+Dox same day” group (n=10) was treated once a week with dTCApFs and doxorubicin (at 15 mg/kg and 3 mg/kg, respectively), when both agents were administered on the same day.

Structure (SMILES)	cell viability (BrdU incorporation) [1]	cell viability (BrdU incorporation) [2]	tumor volume [3]	tumor volume (B16 cells)
CC(=O)O[C@H]1C(=O)[C@@]2(C)[C@H]([C@H](OC(=O)c3ccccc3)[C@]3(O)C[C@H](OC(=O)[C@H](O)[C@@H](NC(=O)c4ccccc4)c4ccccc4)C(C)=C1C3(C)C)[C@]1(OC(C)=O)CO[C@@H]1C[C@@H]2O [Taxol, Paclitaxel]	no effect on cell viability was observed	no effect on cell viability was observed		
COc1cccc2c1C(=O)c1c(O)c3c(c(O)c1C2=O)C[C@@](O)(C(=O)CO)C[C@@H]3O[C@H]1C[C@H](N)[C@H](O)[C@H](C)O1 [doxorubicin]			clear increase in tumor volume	tumor volume clearly increased
